Reference: US20230124548A1, “Therapeutic Methods And Uses Thereof” (Eustralis Pharmaceuticals Limited (Trading As Pressura …, priority 2019, published 2023)
Where two headings read alike, the source gives them in different places.

How the values were obtained:
central NK1 receptors = target: T1, central NK1 receptors (Homo sapiens, UniProt P25103); assay: Phase 1 apomorphine challenge study: blocking of apomorphine induced emesis in healthy volunteers; type: in vivo; settings: for Average Number of Retches or Vomits / Number of Retches (Events) / Number of Retches (Subjects) / Number of Vomits (Subjects) / Number of Vomits (Events): N = 5
T1 construct: from tissue; host or cells: central nervous system of healthy human volunteers (in vivo)
Experimental: (§1) A pharmacodynamic study to assess functional blocking of central NK1 receptors was performed in healthy volunteers. This was done by testing the efficacy of the compound in blocking apomorphine induced emesis. This study indicates the need for a minimum concentration of the initial peak at infusion to obtain efficacious levels, rather than minimal plasma-levels at the time of apomorphine challenge.
(§2) In the phase 1 apomorphine challenge study the ability of the compound to block emesis induced by apomorphine was tested in healthy volunteers. […] At neither time point did subjects require rescue medication to prevent uncontrolled vomiting. On the other hand, when the apomorphine challenge was performed 2 hours after a 30 mg dose (n=5), an average of 4.2 retches and vomits were observed, which would have been even higher had two of five subjects not received rescue medication to block the apomorphine effects. Importantly the plasma concentration of the Compound 2 hours after the 30 mg dose was 60% higher than the plasma concentration 20 hours after the 90 mg dose.

[1] = Plasma concentrations in the apomorphine challenge study; type: in vivo, human
Experimental: as §1, §2

[2] = Intracranial pressure (ICP) curves in clinical trial patients, slow 2-hour infusion; type: in vivo, human; settings: two patients, slow infusion over 2 hours
Experimental: In order to avoid any potential safety issues, the infusion in human clinic trials was slowed down to 2 hours to generate the same AUC but a lower Cmax.
However two patients were treated in a clinical trial, using a slow infusion rate over a timespan of 2 hours.

[3] = Solubility assessment and pH of solution; type: physicochemical
Experimental: Ethanol was also assessed as part of this study.

[4] = 30 mg, apomorphine challenge 2 h after dose
[5] = 90 mg, apomorphine challenge 2 h after dose
[6] = 90 mg, apomorphine challenge 20 h after dose

T1 sequence (P25103 whole entry): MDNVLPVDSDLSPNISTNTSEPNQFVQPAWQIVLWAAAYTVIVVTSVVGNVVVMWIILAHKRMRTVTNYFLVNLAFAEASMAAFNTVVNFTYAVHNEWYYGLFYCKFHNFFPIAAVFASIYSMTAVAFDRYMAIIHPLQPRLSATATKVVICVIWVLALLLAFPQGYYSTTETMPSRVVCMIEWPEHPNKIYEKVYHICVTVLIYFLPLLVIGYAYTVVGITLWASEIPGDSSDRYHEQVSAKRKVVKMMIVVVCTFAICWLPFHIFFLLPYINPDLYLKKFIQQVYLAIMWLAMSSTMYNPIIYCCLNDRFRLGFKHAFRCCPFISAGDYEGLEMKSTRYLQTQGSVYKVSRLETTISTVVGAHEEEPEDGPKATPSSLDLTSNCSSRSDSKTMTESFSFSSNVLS

Cc1ccccc1-c1cc(N2CCN(C)CC2)ncc1C(=O)N(C)Cc1cc(C(F)(F)F)cc(C(F)(F)F)c1 [Compound of Formula (I) 2HCl (R1 = CH3)]
Average Number of Retches or Vomits (central NK1 receptors; [4]): 4.2
Number of Retches (Events) (central NK1 receptors; [4]): 9
Number of Retches (Subjects) (central NK1 receptors; [4]): 2
Number of Vomits (Subjects) (central NK1 receptors; [4]): 3
Number of Vomits (Events) (central NK1 receptors; 30 mg, apomorphine challenge 2 h after dose, 2 of 5 subjects rescued): > 12
Average Number of Retches or Vomits (central NK1 receptors; [5]): 1.4
Number of Retches (Events) (central NK1 receptors; [5]): 5
Number of Retches (Subjects) (central NK1 receptors; [5]): 2
Number of Vomits (Events) (central NK1 receptors; [5]): 2/2
Number of Vomits (Subjects) (central NK1 receptors; [5]): 2/2
Average Number of Retches or Vomits (central NK1 receptors; [6]): 2.6
Number of Retches (Events) (central NK1 receptors; [6]): 12
Number of Retches (Subjects) (central NK1 receptors; [6]): 4
Number of Vomits (Events) (central NK1 receptors; [6]): 1/1
Number of Vomits (Subjects) (central NK1 receptors; [6]): 1/1
duration of reduction of retches/vomits once NK1 blockade is achieved (central NK1 receptors; after peak level of at least 1000-1300 ng/ml): ≥ 20 h
plasma concentration 2 hours after the 30 mg dose, higher than plasma concentration 20 hours after the 90 mg dose ([1]; 30 mg/2 h versus 90 mg/20 h): 60%
Cmax ([1]; human, plasma, intravenous, 30 mg, apomorphine challenge 2 h after dose, N = 5, read-out: Cmax at end of infusion): 252 ng/mL
Cmax ([1]; human, plasma, intravenous, 90 mg, apomorphine challenge 2 h after dose, N = 5, read-out: Cmax at end of infusion): 1040 ng/mL
Cmax ([1]; human, plasma, intravenous, 90 mg, apomorphine challenge 20 h after dose, N = 5, read-out: Cmax at end of infusion): 1270 ng/mL
Cmax ([1]; human, plasma, intravenous, 90 mg, healthy volunteers, apomorphine challenge, read-out: minimum initial peak level (Cmax) at infusion to obtain efficacious levels / central NK1 blockade): 1000 to 1300 ng/mL
concentration at 2 h ([1]; human, plasma, intravenous, 30 mg, apomorphine challenge 2 h after dose, N = 5, read-out: Conc. at challenge): 112 ng/mL
concentration at 2 h ([1]; human, plasma, intravenous, 90 mg, apomorphine challenge 2 h after dose, N = 5, read-out: Conc. at challenge): 356 ng/mL
concentration at 20 h ([1]; human, plasma, intravenous, 90 mg, apomorphine challenge 20 h after dose, N = 5, read-out: Conc. at challenge): 69 ng/mL
efficacy on ICP (ICP curves) [2]: no or minimal efficacy
Solubility in Water, Result ([3]; 5 mg/mL (50 mg in 10 mL water)): Very soluble
pH of solution ([3]; 5 mg/mL in water): 2.39
Solubility in Water, Result ([3]; 10 mg/mL (100 mg in 10 mL water)): Very soluble
pH of solution ([3]; 10 mg/mL in water): 2.14
Solubility in Water, Result ([3]; 15 mg/mL (150 mg in 10 mL water)): Soluble
pH of solution ([3]; 15 mg/mL in water): 2.02
Solubility in Water, Result ([3]; 20 mg/mL (200 mg in 10 mL water)): Soluble
pH of solution ([3]; 20 mg/mL in water): 1.87
Solubility in Water, Result ([3]; 25 mg/mL (250 mg in 10 mL water)): Soluble
pH of solution ([3]; 25 mg/mL in water): 1.81
Solubility in Water, Result ([3]; 30 mg/mL (300 mg in 10 mL water)): Soluble
pH of solution ([3]; 30 mg/mL in water): 1.75
Solubility in Water, Result ([3]; 35 mg/mL (350 mg in 10 mL water)): Soluble
pH of solution ([3]; 35 mg/mL in water): 1.72
Solubility in Water, Result ([3]; 40 mg/mL (400 mg in 10 mL water)): Soluble
pH of solution ([3]; 40 mg/mL in water): 1.66
Solubility in Water, Result ([3]; 45 mg/mL (450 mg in 10 mL water)): Soluble
pH of solution ([3]; 45 mg/mL in water): 1.54
Solubility in Water, Result ([3]; 50 mg/mL (500 mg in 10 mL water)): Soluble
pH of solution ([3]; 50 mg/mL in water): 1.52
Solubility ([3]; 50 mg/mL, stated after 'Ethanol was also assessed', solvent not explicit, golden yellow colour): freely soluble
